Measurements: publication PMC3652196, “Pharmacometrics of 3-Methoxypterostilbene: A Component of Traditional Chinese Medicinal Plants” (Evidence-based Complementary and Alternative Medicine : eCAM, 2013)
“Also recorded” adds a separate entry of the source.

Assays:
[1] = system: human peripheral blood mononuclear cells; conditions: cited from earlier work
[2] = target: T1, COX-1 (Ovis aries, UniProt P05979); experiment: COX inhibitor screening assay (EIA of prostaglandins), COX-1; assay type: biochemical
T1 construct: purchased Cayman Chemical 560131
T1 sequence (P05979 25-600): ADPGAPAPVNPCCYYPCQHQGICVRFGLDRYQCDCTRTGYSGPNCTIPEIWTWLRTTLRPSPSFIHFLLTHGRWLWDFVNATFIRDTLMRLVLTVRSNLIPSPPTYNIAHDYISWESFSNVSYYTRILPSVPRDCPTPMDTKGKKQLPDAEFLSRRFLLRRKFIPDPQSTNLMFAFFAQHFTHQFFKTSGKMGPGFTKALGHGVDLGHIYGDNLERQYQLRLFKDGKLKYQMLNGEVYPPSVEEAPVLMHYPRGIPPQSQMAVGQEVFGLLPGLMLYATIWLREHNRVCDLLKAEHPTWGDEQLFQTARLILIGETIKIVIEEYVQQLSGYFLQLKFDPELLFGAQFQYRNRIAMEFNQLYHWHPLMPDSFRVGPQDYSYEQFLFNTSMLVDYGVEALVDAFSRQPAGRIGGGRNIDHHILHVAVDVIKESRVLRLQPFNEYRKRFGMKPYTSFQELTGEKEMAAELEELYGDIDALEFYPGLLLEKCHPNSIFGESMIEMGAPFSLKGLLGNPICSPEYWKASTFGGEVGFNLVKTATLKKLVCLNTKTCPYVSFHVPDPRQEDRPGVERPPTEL
Procedure: The inhibition of COX-1 and -2 by 3-methoxypterostilbene was measured through the use of a three-day commercial assay kit. The assay relied on the quantification of the prostanoid product based on enzyme immunoassay (EIA), which uses a nonspecific antibody for prostaglandins (PGs). The constant concentration of the PG-AChE-tracer and the varying concentrations of the PGs available to bind to the antiserum is inversely proportional to the concentration of free PGs in the well. For this assay, 3-methoxypterostilbene was dissolved in DMSO over the concentration range of 1–250 μg/mL. Ibuprofen and etodolac, COX-2 preferential NSAIDs, were dissolved in DMSO and used as controls over the concentration range of 1–250 μg/mL. Reagents were prepared according to the manufacturer's instructions that accompanied the kit. The ELISA plate for this purpose was read at an absorbance of 415 nm within 10 minutes at room temperature (23 ± 1°C) using the Synergy HT multiwell plate reader and Gen5 data analysis software (Biotek Instruments Inc., Winooski, VT, USA). The assay was performed in quadruplet. For more information regarding the assay protocol, please refer to the instructions for the kit (COX Inhibitor Screening Assay Kit from Cayman Chemical—Cat. no. 560131).

[3] = computer model; cited from earlier work

COc1cc(/C=C/c2ccc(O)c(OC)c2)cc(OC)c1 [3-methoxypterostilbene, trans-3,3′-5-trimethoxy-4′-hydro-xystilbene]
Inhibition of lipopolysaccharide-induced tissue factor expression [1]: as effective as resveratrol
COX-1 inhibition versus NSAIDs (in words) ([2]; 250 μg/mL, compared with ibuprofen and etodolac): significantly greater activity (P < 0.05) than the NSAIDs at low doses
COX-1 inhibitory activity (in words) ([2]; 1, 10 and 250 μg/mL): positive concentration-dependent inhibitory activity; also recorded: strong COX-1 inhibition comparable to two NSAIDs
Modeled antioxidant potency [3]: greater potency than resveratrol
